Assay results published in patent US5578620A, “Thiazolidine and oxazolidine derivatives, their preparation and their medical use” (Sankyo Company, Limited, priority 1994, dated 1996).

What was measured:
[1] = target: T1, Bovine lens aldose reductase (Bos taurus, UniProt P16116); assay: Inhibition of Aldose reductase; type: biochemical; settings: for inhibition at 5 µg/mL: read-out: Inhibition at 5 μg/ml
T1 construct: Bovine lens aldose reductase was separated and partially purified; from tissue; host or cells: bovine lens
Protocol: Bovine lens aldose reductase was separated and partially purified by the method of S. Hyman and J. H. Kinoshita [J. Biol. Chem., 240, 877 (1965)] and K. Inagaki, I. Miwa and J. Okuda [Arch. Biochem. Biophys., 316, 337 (1982)], and its activity was determined photometrically by the method of Varma et al. [Biochem. Pharmac., 25, 2505 (1976)]. […]

[2] = test system: blood glucose level (BGL); assay: Hypoglycemic activity (blood glucose lowering rate) in hyperglycemic KK mice; type: in vivo, male mice of the KK strain; settings: Mus musculus, oral, 18 hours
Protocol: The test animals used were hyperglycemic male mice of the KK strain, each having a body weight more than 40 g. Each animal was orally administered a test compound in the amount shown in the following Table 8 and then allowed to feed freely for 18 hours. At the end of this time, blood was collected from the tail veins without anesthesia. The blood glucose level (BGL) was determined by means of a glucose analyzer (GL-101, manufactured by Mitsubishi Kasei Co. or Glucoroder manufactured by Shino Test Co.).
The blood glucose lowering rate was calculated by the following equation:
Blood glucose lowering rate (%)=
BGLs is the BGL in the group administered a solvent only, but no active compound; and
BGLt is the BGL in the group administered a test compound.
The results are shown in the following Table 8, in which each compound of the present invention is identified by the number of one of the following Examples in which its preparation is illustrated.

[3] = Toxicity, oral administration for 2 weeks; type: in vivo, male F344 rats; settings: 50 mg/kg; for mortality rate: male F344 rats, oral, 2 weeks
Protocol: The toxicity of the compounds of the present invention was tested on male F344 rats, divided into groups of 5. The test compound was adminstered orally to each test animal at a dose of 50 mg/kg of body weight for 2 weeks. The test compounds used were those of Examples 20, 45 (polar, less polar) and 47 (polar).

SMILES	IC50 [1]	inhibition at 5 µg/mL [1]	inhibition in vivo at 1 mg/kg [2]	further results
COc1ccc(OCC2CN(C(C)COc3ccc(CC4SC(=O)NC4=O)cc3)C(=O)O2)cc1 (single isomer, unassigned) [31 (less polar), 5-{4-[2-(5-4'-Methoxyphenoxymethyl-2-oxooxazolidin-3-yl)propoxy]benzyl}thiazolidine-2,4-dione]	3.91 µM	67.8%	21.6%	–
CC(COc1ccc(CC2SC(=O)NC2=O)cc1)N1CC(COc2cccc(Cl)c2)OC1=S (single isomer, unassigned) [Example 45 (less polar), 5-{4-[2-(5-3'-Chlorophenoxymethyl-2-thioxooxazolidin-3-yl)propoxy]benzyl}thiazolidine-2,4-dione]	–	–	27.2%	mortality rate [3]: zero; abnormalities observed during 2 successive weeks ([3]; rat, in vivo, po): no abnormalities which could be attributed to the test coumpounds; hematological examinations (red blood cell counts) ([3]; rat, in vivo, po): slighly decrease in red blood cell counts
CCCC(COc1ccc(CC2SC(=O)NC2=O)cc1)N1CC(COc2cccc(Cl)c2)OC1=O (single isomer, unassigned) [Example 50 (less polar), 5-{4-[2-(5-3'-Chlorophenoxymethyl-2-oxooxazolidin-3-yl)pentyloxy]benzyl}thiazolidine-2,4-dione]	–	–	17.5%	–
CC(COc1ccc(CC2SC(=O)NC2=O)cc1)N1CC(COc2ccc(-c3ccccc3)cc2)OC1=S (centres unmarked) [36 (polar), 5-{4-[2-(5-4'-Phenylphenoxymethyl-2-thioxooxazolidin-3-yl)propoxy]benzyl}thiazolidine-2,4-dione]	–	–	13.7%	–
CC(COc1ccc(CC2SC(=O)NC2=O)cc1)N1CC(COc2cccc(Cl)c2)OC1=S (centres unmarked) [45 (polar), 5-{4-[2-(5-3'-Chlorophenoxymethyl-2-thioxooxazolidin-3-yl)propoxy]benzyl}thiazolidine-2,4-dione]	–	–	23.9%	mortality rate [3]: zero; abnormalities observed during 2 successive weeks ([3]; rat, in vivo, po): no abnormalities which could be attributed to the test coumpounds
CCC(COc1ccc(CC2SC(=O)NC2=O)cc1)N1CC(COc2cccc(Cl)c2)OC1=O (centres unmarked) [47 (polar), 5-{4-[2-(5-3'-Chlorophenoxymethyl-2-oxooxazolidin-3-yl)butoxy]benzyl}thiazolidine-2,4-dione]	0.455 µM	86.6%	34.7%	mortality rate [3]: zero; abnormalities observed during 2 successive weeks ([3]; rat, in vivo, po): no abnormalities which could be attributed to the test coumpounds
CC(C)C(COc1ccc(CC2SC(=O)NC2=O)cc1)N1CC(COc2cccc(Cl)c2)OC1=O (centres unmarked) [51 (polar), 5-{4-[2-(5-3'-Chlorophenoxymethyl-2-oxooxazolidin-3-yl)-3-methylbutoxy]benzyl}thiazolidine-2,4-dione]	–	–	20.8%	–
CC(COc1ccc(CC2SC(=O)NC2=O)cc1)N1CC(COc2cccc(Cl)c2)OC1=O (centres unmarked) [Example 1, 5-{4-[2-(5-3'-Chlorophenoxymethyl-2-oxooxazolidin-3-yl)propoxy]benzyl}thiazolidine-2,4-dione]	0.224 µM	89.6%	28.5%	–
O=C1NC(=O)C(Cc2ccc(OCCN3CC(COc4cccc(Cl)c4)OC3=O)cc2)S1 (centres unmarked) [Example 6, 5-{4-[2-(5-3'-Chlorophenoxymethyl-2-oxooxazolidin-3-yl)ethoxy]benzyl}thiazolidine-2,4-dione]	–	–	19.2%	–
CC(COc1ccc(CC2SC(=O)NC2=O)cc1)NCC(O)Cc1ccccc1 (centres unmarked) [Example 7, 5-{4-[2-(3-Phenyl-2-hydroxypropylamino)propoxy]benzyl}thiazolidine-2,4-dione]	–	–	36.3%	–
C[C@H](COc1ccc(CC2SC(=O)NC2=O)cc1)N1C[C@@H](COc2cccc(Cl)c2)OC1=O (stereo partly drawn) [Example 11, 5-[4-{2(R)-[5(S)-(3-Chlorophenoxymethyl)-2-oxooxazolidin-3-yl]propoxy}benzyl]thiazolidine-2,4-dione]	–	–	24.3%	–
C[C@@H](COc1ccc(CC2SC(=O)NC2=O)cc1)N1C[C@@H](COc2cccc(Cl)c2)OC1=O (stereo partly drawn) [Example 13, 5-[4-{2(S)-[5(S)-(3-Chlorophenoxymethyl)-2-oxooxazolidin-3-yl]propoxy}benzyl]thiazolidine-2,4-dione]	–	–	29.9%	–
CC(COc1ccc(CC2SC(=O)NC2=O)cc1)NCC(O)COCc1ccccc1 (centres unmarked) [Example 15, 5-{4-[2-(3-Benzyloxy-2-hydroxypropylamino)propoxy]benzyl}thiazolidine-2,4-dione]	–	–	19.1%	–
CC(COc1ccc(CC2SC(=O)NC2=O)cc1)NCC(O)COCCc1ccccc1 (centres unmarked) [Example 18, 5-{4-[2'-(3-2'-phenylethoxy-2-hydroxypropylamino)propoxy]benzyl}thiozolidine-2,4-dione]	–	–	10.5%	–
CC(COc1ccc(CC2SC(=O)NC2=O)cc1)NCC(O)COCCCCc1ccccc1 (centres unmarked) [Example 19, 5-{4-[2-(3-4'-Phenylbutoxy-2-hydroxypropylamino)propoxy]benzyl}thiazolidine-2,4-dione]	8.01 µM	56.1%	15.8%	–
CC(COc1ccc(CC2SC(=O)NC2=O)cc1)NCC(O)COCCCCCCc1ccccc1 (centres unmarked) [Example 20, 5-{4-[2-(3-6'-Phenylhexyloxy-2-hydroxypropylamino)propoxy]benzyl}thiazolidine-2,4-dione]	3.5 µM	69.1%	37.9%	mortality rate [3]: zero; abnormalities observed during 2 successive weeks ([3]; rat, in vivo, po): no abnormalities which could be attributed to the test coumpounds
CC(COc1ccc(CC2SC(=O)NC2=O)cc1)N1CC(COCc2ccccc2)OC1=O (centres unmarked) [Example 22, 5-{4-[2-(5-Benzyloxymethyl-2-oxooxazolidin-3-yl)propoxy]benzyl}thiazolidine-2,4-dione]	3.61 µM	70.1%	14.3%	–
CC(COc1ccc(CC2SC(=O)NC2=O)cc1)N1CC(COCCCCCCCCc2ccccc2)OC1=O (centres unmarked) [Example 28, 5-{4-[2-(5-8'-Phenyloctyloxymethyl-2-oxooxazolidin-3-yl)propoxy]benzyl}thiazolidine-2,4-dione]	–	–	13.6%	–
CC(COc1ccc(CC2SC(=O)NC2=O)cc1)N1CC(COCCCCCCCc2ccccc2)OC1=O (centres unmarked) [Example 29, 5-{4-[2-(5-7'-Phenylheptyloxymethyl-2-oxooxazolidin-3-yl)propoxy]benzyl}thiazolidine-2,4-dione]	–	–	18.1%	–
CC(COc1ccc(CC2SC(=O)NC2=O)cc1)N1CC(COc2ccc(-c3ccccc3)cc2)OC1=O (centres unmarked) [Example 35, 5-{4-[2-(5-4'-Phenylphenoxymethyl-2-oxooxazolidin-3-yl)propoxy]benzyl}thiazolidine-2,4-dione]	–	–	13.5%	–
CC(COc1ccc(CC2SC(=O)NC2=O)cc1)NCC(O)COCc1cccc(Cl)c1 (centres unmarked) [Example 41, 5-{4-[2-(3-3'-Chlorobenzyloxy-2-hydroxypropylamino)propoxy]benzyl}thiazolidine-2,4-dione]	6.68 µM	57.4%	18.2%	–
